According to patent publication US20100298141A1, “SUBSTITUTED PYRIDINE N-OXIDE HERBICIDES” (E. I. DU PONT DE NEMOURS AND COMPANY, priority 2007, published 2010):

Key:
Assay in all cases: Test C pre-/postemergence test
Goosegrass = format: in vivo, Eleusin indica; conditions: for Goosegrass plant response rating: preemergence, scale 0 (no effect) to 100 (complete control); for Plant response rating, Goosegrass: scale 0 to 100, 0 no effect, 100 complete control
Excerpt: (§1) Seeds of plant species selected from blackgrass (Alopecurus myosuroides), downy brome (Bromus tectorum), green foxtail (Setaria viridis), Italian ryegrass (Lolium multiflorum), wheat (Triticum aestivum), wild oat (Avena fatua), catchweed bedstraw (Galium aparine), Russian thistle (Salsola kali), […] (Cynodon dactylon), Surinam grass (Brachiaria decumbens), cocklebur (Xanthium strumarium), corn (Zea mays), crabgrass (Digitaria sanguinalis), woolly cupgrass (Eriochloa villosa), giant foxtail (Setaria faberii), Goosegrass (Eleusin indica), johnsongrass (Sorghum halepense), kochia (Kochia scoparia), lambsquarters (Chenopodium album), morningglory (Ipomoea coccinea), eastern black nightshade (Solanum ptycanthum), yellow nutsedge (Cyperus esculentus), pigweed (Amaranthus retroflexus), common ragweed (Ambrosia elation), soybean (Glycine max), common (oilseed) sunflower (Helianthus annuus), and velvetleaf (Abutilon theophrasti) were planted and treated preemergence with test chemicals formulated in a non-phytotoxic solvent mixture which included a surfactant. At the same time, plants selected from these crop and weed species and also winter barley (Hordeum vulgare), canarygrass (Phalaris minor), and chickweed (Stellaria media) were treated with postemergence applications of some of the test chemicals formulated in the same manner. Plants ranged in height from 2 to 18 cm (1- to 4-leaf stage) for postemergence treatments. […] At time of treatment, test pots were flooded to 3 cm above the soil surface, treated by application of test compounds directly to the paddy water, and then maintained at that water depth for the duration of the test. […] A dash (-) response means no test result.

johnsongrass = format: in vivo, Sorghum halepense; conditions: for Plant response rating, Johnsongrass: scale 0 to 100, 0 no effect, 100 complete control
Excerpt: as §1

lambsquarters = format: in vivo, Chenopodium album; conditions: for Plant response rating, Lambsquarters: scale 0 to 100, 0 no effect, 100 complete control
Excerpt: as §1

morningglory = format: in vivo, Ipomoea coccinea; conditions: for Plant response rating, Morningglory: scale 0 to 100, 0 no effect, 100 complete control
Excerpt: as §1

yellow nutsedge = format: in vivo, Cyperus esculentus; conditions: for Plant response rating, Nutsedge, Yellow: scale 0 to 100, 0 no effect, 100 complete control
Excerpt: as §1

common ragweed = format: in vivo, Ambrosia elation; conditions: for Plant response rating, Ragweed: scale 0 to 100, 0 no effect, 100 complete control
Excerpt: as §1

soybean = format: in vivo, Glycine max; conditions: for Plant response rating, Soybean: scale 0 to 100, 0 no effect, 100 complete control
Excerpt: as §1

[1] = 31 g ai/ha, Preemergence, scale 0 to 100
[2] = 62 g ai/ha, preemergence, scale 0 (no effect) to 100 (complete control)
[3] = preemergence, 125 g ai/ha, scale 0 (no effect) to 100 (complete control)

SMILES: Cn1nc(C(F)(F)F)c(C[S+]([O-])c2ccc(Cl)c[n+]2[O-])c1OC(F)F (centres unmarked) [Compound 6]
- Goosegrass plant response rating (Goosegrass; 62 g ai/ha): 100
- Plant response rating (0 to 100), Goosegrass (Goosegrass; Postemergence, 31 g ai/ha): 0
- Plant response rating, Goosegrass (Goosegrass; Postemergence, 62 g ai/ha): 0
- Plant response rating, Goosegrass (Goosegrass; Postemergence, 125 g ai/ha): 20
- Plant response rating, Goosegrass (Goosegrass; Postemergence, 250 g ai/ha): 45
- Plant response rating (0 to 100), Goosegrass (Goosegrass; Preemergence, 250 g ai/ha): 100
- Goosegrass plant response rating (Goosegrass; 125 g ai/ha): 100
- Johnsongrass plant response rating (johnsongrass; [1]): 65
- Johnsongrass plant response rating (johnsongrass; [2]): 98
- Plant response rating (0 to 100), Johnsongrass (johnsongrass; Postemergence, 31 g ai/ha): 0
- Plant response rating, Johnsongrass (johnsongrass; Postemergence, 62 g ai/ha): 0
- Plant response rating, Johnsongrass (johnsongrass; Postemergence, 125 g ai/ha): 30
- Plant response rating, Johnsongrass (johnsongrass; Postemergence, 250 g ai/ha): 35
- Plant response rating (0 to 100), Johnsongrass (johnsongrass; Preemergence, 250 g ai/ha): 100
- Johnsongrass plant response rating (johnsongrass; [3]): 98
- Lambsquarters plant response rating (lambsquarters; [2]): 0
- Plant response rating (0 to 100), Lambsquarters (lambsquarters; Postemergence, 31 g ai/ha): 0
- Plant response rating, Lambsquarters (lambsquarters; Postemergence, 62 g ai/ha): 10
- Plant response rating, Lambsquarters (lambsquarters; Postemergence, 125 g ai/ha): 10
- Plant response rating, Lambsquarters (lambsquarters; Postemergence, 250 g ai/ha): 10
- Plant response rating (0 to 100), Lambsquarters (lambsquarters; Preemergence, 250 g ai/ha): 100
- Morningglory plant response rating (morningglory; [1]): 0
- Morningglory plant response rating (morningglory; [2]): 0
- Plant response rating (0 to 100), Morningglory (morningglory; Postemergence, 31 g ai/ha): 10
- Plant response rating, Morningglory (morningglory; Postemergence, 62 g ai/ha): 50
- Plant response rating, Morningglory (morningglory; Postemergence, 125 g ai/ha): 50
- Plant response rating, Morningglory (morningglory; Postemergence, 250 g ai/ha): 50
- Plant response rating (0 to 100), Morningglory (morningglory; Preemergence, 250 g ai/ha): 70
- Morningglory plant response rating (morningglory; [3]): 10
- Nutsedge, Yellow plant response rating (yellow nutsedge; [1]): 0
- Nutsedge, Yellow plant response rating (yellow nutsedge; [2]): 20
- Plant response rating (0 to 100), Nutsedge, Yellow (yellow nutsedge; Postemergence, 31 g ai/ha): 0
- Plant response rating, Nutsedge, Yellow (yellow nutsedge; Postemergence, 62 g ai/ha): 0
- Plant response rating, Nutsedge, Yellow (yellow nutsedge; Postemergence, 125 g ai/ha): 0
- Plant response rating, Nutsedge, Yellow (yellow nutsedge; Postemergence, 250 g ai/ha): 20
- Plant response rating (0 to 100), Nutsedge, Yellow (yellow nutsedge; Preemergence, 250 g ai/ha): 98
- Nutsedge, Yellow plant response rating (yellow nutsedge; [3]): 80
- Ragweed plant response rating (common ragweed; [1]): 0
- Ragweed plant response rating (common ragweed; [2]): 0
- Plant response rating (0 to 100), Ragweed (common ragweed; Postemergence, 31 g ai/ha): 0
- Plant response rating (0 to 100), Ragweed (common ragweed; Postemergence, 62 g ai/ha): 0
- Plant response rating, Ragweed (common ragweed; Postemergence, 125 g ai/ha): 10
- Plant response rating, Ragweed (common ragweed; Postemergence, 250 g ai/ha): 50
- Plant response rating (0 to 100), Ragweed (common ragweed; Preemergence, 250 g ai/ha): 40
- Ragweed plant response rating (common ragweed; [3]): 0
- Soybean plant response rating (soybean; [1]): 0
- Soybean plant response rating (soybean; [2]): 0
- Plant response rating (0 to 100), Soybean (soybean; Postemergence, 31 g ai/ha): 5
- Plant response rating (0 to 100), Soybean (soybean; Postemergence, 62 g ai/ha): 60
- Plant response rating, Soybean (soybean; Postemergence, 125 g ai/ha): 70
- Plant response rating, Soybean (soybean; Postemergence, 250 g ai/ha): 90
- Plant response rating (0 to 100), Soybean (soybean; Preemergence, 250 g ai/ha): 50
- Soybean plant response rating (soybean; [3]): 0
